Patent US8507656B2, “Stabilized angiopoietin-2 antibodies and uses thereof” (MedImmune Limited, priority 2008, dated 2013)
Like-named read-outs stand apart in the source and are kept apart here.

What was measured:
Colo205 xenograft tumors = assay: Colo205 xenograft model of colorectal cancer; format: in vivo; details: 3.19.3 10 mg/kg 2×wk i.p., Gemcitabine 50 mg/kg q3dx2 i.v., combination of both
Procedure: (§1) The anti-tumor activity of 3.19.3 was evaluated in combination with Gemcitabine in the Colo205 xenograft model of colorectal cancer. Colo205 cells were cultured in flasks as routine until the cells reached sub-confluence. Cell suspensions containing approximately 3×10E6 cells were injected subcutaneously into the flank of female Swiss nude mice. When the tumor volume reached 200 mm^3, the mice were randomized in treatment groups of 8-10 mice and the treatments were initiated. 3.19.3 (10 mg/kg) in saline was injected intraperitoneally, twice per week for 2 weeks. Gemcitabine (50 mg/kg) was administered by intravenous administration following a q3d schedule. The dimensions of each tumor and body weights were measured at least twice per week. The volume of the tumor was calculated as: Volume=Length×(Width)×0.5 (cm^3). […] The % tumor growth inhibition achieved is as follows: […]

HT-29 xenograft tumors = assay: HT-29 xenograft model of colorectal cancer; format: in vivo; details: 3.19.3 10 mg/kg 2×wk i.p., Irinotecan 35 mg/kg/week i.v., combination of both
Procedure: as §1, with “Irinotecan” for “Gemcitabine”, “HT-29” for “Colo205”, “Irinotecan (35” for “Gemcitabine (50”, “weekly” for “q3d”

H460 xenograft tumors [1] = format: in vivo; details: 3.19.3 10 mg/kg 2×wk i.p., Oxaliplatin 5 mg/kg/week i.p., combination of both
Procedure: (§2) The anti-tumor activity of 3.19.3 was evaluated in combination with Oxaliplatin in the H460 xenograft model of lung cancer. H460 cells were cultured in flasks as routine until the cells reached sub-confluence. Cell suspensions containing approximately 3×10E6 cells were injected subcutaneously into the flank of female Swiss nude mice. When the tumor volume reached 200 mm^3, the mice were randomized in treatment groups of 8-10 mice and the treatments were initiated. 3.19.3 (10 mg/kg) in saline was injected intraperitoneally, twice per week for 2 weeks. Oxaliplatin (5 mg/kg) was administered by intraperitoneal administration following a weekly schedule. The dimensions of each tumor and body weights were measured at least twice per week. The volume of the tumor was calculated as: Volume=Length×(Width)×0.5 (cm^3).

[2] = test system: MDA-MB-231 xenograft tumors; assay: MDA-MB-231 orthotopic breast cancer xenograft model; format: in vivo; details: 3.19.3 10 mg/kg 2×wk i.p., AZD6495 30 mg/kg bid p.o. 18 d, combination of both
Procedure: The anti-tumor activity of the anti-Angiopoietin-2 monoclonal antibody 3.19.3 in combination with the small molecule CSF1R tyrosine kinase inhibitor AZD6495 was evaluated in a xenograft model of human breast carcinoma using the MDA-MB-231 cell line (FIG. 5a).
Breast adenocarcinoma MDA-MB-231 cells were cultured in flasks as routine until the cells reach sub-confluence. Immunodeficient 7-10 week old female nude mice were orthotopically implanted with 8×10^6 MDA-MB-231 cells suspended 1:1 in Matrigel into the mammary fat pad. The mice were then randomized into cohorts containing 10 mice once the tumors reached approximately 100 mm^3. The mice were treated by intraperitoneally (IP) injection with mAb 3.19.3 (10 mg/kg) twice per week for 3 weeks thereafter, or by oral administration of AZD6495 (30 mg/kg) following bid dosing for 18 days. […] The body weights of each animal, and the dimensions of each tumor were measured twice per week. The volume of the tumor was calculated as: Volume=Length×(Width)^2×0.5 cm^3, or by bilateral Vernier caliper measurement and, taking length to be the longest diameter across the tumor and width the corresponding perpendicular, calculated using the formula (π/6)×(length×width)×√(length×width). Growth inhibition from the start of treatment was assessed by comparison of the differences in tumor volume between control and treated groups.

H460 xenograft tumors [3] = format: in vivo; details: 3.19.3 10 mg/kg 2×wk i.p., AZD4877 10 mg/kg q4dx2 i.p., combination of both
Procedure: The anti-tumor activity of 3.19.3 was evaluated in combination with AZD4877 in the
H460 xenograft model of lung cancer. H460 cells were cultured in flasks as routine until the cells reached sub-confluence. Cell suspensions containing approximately 3×10E6 cells were injected subcutaneously into the right flank of male NCr nu/nu mice. When the tumor volume reached 200 mm^3, the mice were randomized in treatment groups of 8-10 mice and the treatments were initiated. 3.19.3 (10 mg/kg) in saline was injected intraperitoneally, twice per week for 2 weeks. AZD4877 (10 mg/kg) was administered by intraperitoneal administration following a q4d schedule. The dimensions of each tumor and body weights were measured at least twice per week. The volume of the tumor was calculated as: Volume=Length×(Width)×0.5 (cm^3).

[4] = test system: collagen induced arthritis
Calu6 xenograft tumors = format: in vivo; details: 3.19.3 10 mg/kg 2×wk i.p., Docetaxel 15 mg/kg/week i.v., combination of both
Procedure: as §2, with “with Docetaxel” for “with Oxaliplatin”, “the Calu6” for “the H460”, “cancer. Calu6” for “cancer. H460”, “weeks. Docetaxel (15” for “weeks. Oxaliplatin (5”, “by intravenous” for “by intraperitoneal”

[5] = means ± SEM, 3.19.3 10 mg/kg i.p every 3 days, hIgG i.p, Prednisolone 3 mg/kg p.o daily, 14 days from disease onset

3.19.3: fully human anti-Ang-2 monoclonal antibody, wild type control; light chain SEQ ID No. 1, heavy chain SEQ ID No. 2 [Antibody 3.19.3]
% tumor growth inhibition (Colo205 xenograft tumors): 74% | % tumor growth inhibition (HT-29 xenograft tumors): 44% | % tumor growth inhibition (H460 xenograft tumors [1]): 67% | % tumor growth inhibition [2]: 17% | % tumor growth inhibition (H460 xenograft tumors [3]): 64% | clinical signs of disease progression (arthritic score) and histological assessment of synovitis and joint destruction (in words) ([4]; 3.19.3 10 mg/kg, vs vehicle control): Significant reductions | % Inhibition (of AUC of clinical disease progression) [4, 5]: 64.3% ± 8.6% | Area Under Curve (AUC) of clinical disease progression [4, 5]: 36.0 ± 8.7 | tolerability by mean body weight (in words) ([4]; mouse, in vivo, 10 mg/kg): well tolerated | % tumor growth inhibition (Calu6 xenograft tumors): 20%
